The values below are quoted from earlier work in patent US9597313B2 (priority 2006, dated 2017).

In the data set the test system is aflatoxin-N7-guanine adducts. As to conditions: 100 mg chlorophyllin three times a day for four months.

chlorophyllin: the “Reduction in median urinary levels of aflatoxin-N7-guanine adducts compared with placebo” value is listed as 55%.
